According to patent US20020025940A1, “Methods and compositions for sensitive and rapid, functional identification of genomic polynucleotides and use for cellular assays in drug discovery” (Aurora Biosciences Corporation, priority 1997, published 2002):

Key:
Type in all cases: cell-based, human
[1] = tested on: clone C2 (3×NFAT response element linked to beta-lactamase, M1 muscurinic receptor); assay: Relative beta-lactamase activity of control clone C2; conditions: PMA 8 nM, Thaps 1 microM, CsA 100 nM, PHA 10 microgram/ml
Excerpt: (§1) Isolated clones from PHA-induced (Example 6) and PHA-repressed (Example 7) procedures described above were characterized to determine the specificity of their modulation and time required for induction or repression. Clones were stimulated with multiple activators or inhibitors over a one to twenty-four hour time interval.
(§2) In this study, PMA, which is a PKC activator, Thapsigargin which increases intracellular calcium, PHA which activates the T-cell receptor pathway, and cyclosporin A which is a clinically approved immunosuppressant that inhibits the Ca^2+ dependent phosphates calcineurin were investigated for their ability to modulate beta-lactamase expression in PHA induced and repressed BLEC clones.

[2] = tested on: induced BLEC Jurkat clones; assay: Characterization of induced BLEC Jurkat clones, change in 460/530 ratio; conditions: PHA 10 microgram/ml, Thaps 1 microM, PMA 8 nM, Anti-CD3 2 microgram/ml
Excerpt: These clones represent cells in which the trapping construct had integrated into a gene up regulated by PHA (T-cell) activation. Thus, these cells report the transcriptional activation of a gene upon cellular activation. Individual clones were identified and isolated by FACS using CCF2/AM to detect beta-lactamase activity. This clone isolation method, the induced sorting paradigm, used three sequential and independent stimulation and sorting protocols. […] These control cells were all green.
These isolated clones were expanded and tested for PHA inducibility by microscopic inspection with and without PHA stimulation in the presence of CCF2/AM. A total of fifty-five PHA inducible clones were identified using this procedure. The PHA inducibility for these clones ranged from a 1.5 to 40 fold change in the 460/530 ratio as compared to unstimulated control cells. Genomic Southern analysis using a DNA probe encoding beta-lactamase established that these clones represented 34 independent stable vector integration events. A list of clones obtained by the methods of the present invention and their characteristics is provided below in Table 6 and Table 7.
In addition to PHA inducible clones, Phobol 12-myristate 13-acetate (PMA) (Calbiochem), Thapsigargin (Thaps) (Calbiochem), and PMA+Thaps inducible clones were isolated using the general procedure set forth above using the indicated inducer rather than PHA. PMA is a specific activator of PKC (protein kinase C) and Thaps is a specific activator of intracellular calcium ion release (Thaps). These clones were isolated using three rounds of FACS using the general procedures described for the PHA inducible clones in Example 5. In such instances, other stimulants were substituted for PHA. PMA was provided at 8 nM, Thaps was provided at 1 microM. When these two stimulants were combined, their concentration was not changed. […] By using varied selection conditions, it is possible to isolate functionally distinct clones downstream of the desired signaling target.
Table 7 and Table 8 provide data similar to that provided in Table 5 for all of the clones obtained by the methods of Examples 5 to 7.

[3] = tested on: BLEC Jurkat clones; assay: Specificity of activated BLEC Jurkat clones, relative beta-lactamase activity; conditions: PMA 8 nM, Thaps 1 microM, CsA 100 nM, PHA 10 microgram/ml
Excerpt: as §1, §2

## CCCCCCCCCCCCCC(=O)O[C@@H]1[C@@H](C)[C@@]2(O)[C@@H](C=C(CO)C[C@]3(O)C(=O)C(C)=C[C@@H]23)[C@@H]2C(C)(C)[C@]12OC(C)=O [PMA, Phobol 12-myristate 13-acetate]
[1]
  Relative Beta-Lactamase Activity of the Clone by the Indicated Stimulus After 24 hours (% of maximum activated stimuli): <1%
[2]; clone J83PI1
  Change in 460/530 ratio in the indicated clone by the following activator: 3-4
[2]; clone J83PI2
  Change in 460/530 ratio in the indicated clone by the following activator: 7-8
[2]; clone J83PI3
  Change in 460/530 ratio in the indicated clone by the following activator: 3-4
[2]; clone J83PI4
  Change in 460/530 ratio in the indicated clone by the following activator: 0
[2]; clone J83PI6
  Change in 460/530 ratio in the indicated clone by the following activator: 0
[2]; clone J83PI7
  Change in 460/530 ratio in the indicated clone by the following activator: 2
[2]; clone J83PI8
  Change in 460/530 ratio in the indicated clone by the following activator: 4-5
[2]; clone J83PI9
  Change in 460/530 ratio in the indicated clone by the following activator: 0
[2]; clone J83PI13
  Change in 460/530 ratio in the indicated clone by the following activator: 0
[2]; clone J83PI14
  Change in 460/530 ratio in the indicated clone by the following activator: 2
[2]; clone J83PI15
  Change in 460/530 ratio in the indicated clone by the following activator: 3
[2]; clone J83PI16
  Change in 460/530 ratio in the indicated clone by the following activator: 3-4
[2]; clone J83PI18
  Change in 460/530 ratio in the indicated clone by the following activator: 5
[2]; clone J83PI19
  Change in 460/530 ratio in the indicated clone by the following activator: 3
[2]; clone J97PI1
  Change in 460/530 ratio in the indicated clone by the following activator: 3-4
[2]; clone J97PI3
  Change in 460/530 ratio in the indicated clone by the following activator: 1-2
[2]; clone J97PI4
  Change in 460/530 ratio in the indicated clone by the following activator: 1-2
[2]; clone J97PI5
  Change in 460/530 ratio in the indicated clone by the following activator: 1.5
[2]; clone J97PI6
  Change in 460/530 ratio in the indicated clone by the following activator: 1-2
[2]; clone J97PI7
  Change in 460/530 ratio in the indicated clone by the following activator: 1-2
[2]; clone J97PI8
  Change in 460/530 ratio in the indicated clone by the following activator: 1-2
[2]; clone J97PI9
  Change in 460/530 ratio in the indicated clone by the following activator: 1-2
[2]; clone J97PI10
  Change in 460/530 ratio in the indicated clone by the following activator: 1-2
[2]; clone J97PI11
  Change in 460/530 ratio in the indicated clone by the following activator: 2
[2]; clone J97PI12
  Change in 460/530 ratio in the indicated clone by the following activator: 2-3
[2]; clone J97PI13
  Change in 460/530 ratio in the indicated clone by the following activator: 1-2
[2]; clone J97PI14
  Change in 460/530 ratio in the indicated clone by the following activator: 2
[2]; clone J97PI15
  Change in 460/530 ratio in the indicated clone by the following activator: 1-2
[2]; clone J97PI17
  Change in 460/530 ratio in the indicated clone by the following activator: 1-2
[2]; clone J97PI18
  Change in 460/530 ratio in the indicated clone by the following activator: 1-2
[2]; clone J97PI19
  Change in 460/530 ratio in the indicated clone by the following activator: 1-2
[2]; clone J97PI20
  Change in 460/530 ratio in the indicated clone by the following activator: 1-2
[2]; clone J97PI21
  Change in 460/530 ratio in the indicated clone by the following activator: 1-2
[2]; clone J97PI22
  Change in 460/530 ratio in the indicated clone by the following activator: 2-3
[2]; clone J97PI23
  Change in 460/530 ratio in the indicated clone by the following activator: 1-2
[2]; clone J97PI24
  Change in 460/530 ratio in the indicated clone by the following activator: 2-3
[2]; clone J97PI116
  Change in 460/530 ratio in the indicated clone by the following activator: 2-3
[2]; clone J325B5
  Change in 460/530 ratio in the indicated clone by the following activator: 2-3
[2]; clone J325B11
  Change in 460/530 ratio in the indicated clone by the following activator: 2-3
[2]; clone J325E1
  Change in 460/530 ratio in the indicated clone by the following activator: 8
[2]; clone J325E3
  Change in 460/530 ratio in the indicated clone by the following activator: 2-3
[2]; clone J325E6
  Change in 460/530 ratio in the indicated clone by the following activator: 3-4
[2]; clone J325G4
  Change in 460/530 ratio in the indicated clone by the following activator: 3-4
[2]; clone J326C9
  Change in 460/530 ratio in the indicated clone by the following activator: 2-3
[2]; clone J326D4
  Change in 460/530 ratio in the indicated clone by the following activator: 10
[2]; clone J326D7
  Change in 460/530 ratio in the indicated clone by the following activator: 10
[2]; clone J326F7
  Change in 460/530 ratio in the indicated clone by the following activator: 10
[2]; clone J326H4
  Change in 460/530 ratio in the indicated clone by the following activator: 10
[2]; clone J389PM2
  Change in 460/530 ratio in the indicated clone by the following activator: 3-4
[2]; clone J389PM3
  Change in 460/530 ratio in the indicated clone by the following activator: 2-3
[2]; clone J389PM5
  Change in 460/530 ratio in the indicated clone by the following activator: 3-4
[2]; clone J389PM7
  Change in 460/530 ratio in the indicated clone by the following activator: 1-2
[2]; clone J389PM8
  Change in 460/530 ratio in the indicated clone by the following activator: 2-3
[2]; clone J389PT4
  Change in 460/530 ratio in the indicated clone by the following activator: 12
[2]; clone J389PTt
  Change in 460/530 ratio in the indicated clone by the following activator: 8-9
[2]; clone J389TI1
  Change in 460/530 ratio in the indicated clone by the following activator: 1-2
[2]; clone J389TI4
  Change in 460/530 ratio in the indicated clone by the following activator: 1-2
[3]; clone J32-6D4
  Relative Beta-Lactamase Activity of the Clone by the Indicated Stimulus After 24 hours (% of maximum activated stimuli): 60%
[3]; clone J83 97-PPTR2 (repressed paradigm)
  Relative Beta-Lactamase Activity of the Clone by the Indicated Stimulus After 24 hours (% of maximum activated stimuli): 100%
[3]; clone J83-PI9
  Relative Beta-Lactamase Activity of the Clone by the Indicated Stimulus After 24 hours (% of maximum activated stimuli): <1%
[3]; clone J83-PTI8
  Relative Beta-Lactamase Activity of the Clone by the Indicated Stimulus After 24 hours (% of maximum activated stimuli): 80%
[3]; clone J389-PTI4
  Relative Beta-Lactamase Activity of the Clone by the Indicated Stimulus After 24 hours (% of maximum activated stimuli): 90%
